Results as given in patent US11492325B2, “Compounds as inhibitors of sodium channels” (Human BioMolecular Research Institute, priority 2016, dated 2022).
Like-named read-outs stand apart in the source and are kept apart here.

How the values were obtained:
[1] = Metabolism in human hepatic S9; details: for Liver S-9 T1/2: s9
Procedure: (§1) A typical incubation contained rat, mouse, dog or human liver microsomes (0.4-0.5 mg of protein), 100 mM potassium phosphate buffer (pH7.4), 50 μM test compound, an NADPH-generating system consisting of 0.5 mM NADP^+, 0.5 mM glucose-6-phosphate, 1 IU/mL glucose-6-phosphate dehydrogenase, 1 mg/mL diethylenetriaminepentaaceticacid (DETAPAC), and 3 mM MgCl2 in a final incubation volume of 0.25 mL. […] After centrifugation at 3000 rpm for 5 min, the organic fraction was collected, the solvent was removed with a stream of argon and the residue was reconstituted in 125 μL of MeOH and 125 μL H2O, mixed thoroughly, centrifuged at 13,000 rpm for 5 min and analyzed by high performance liquid chromatography. Samples were run on a Hitachi D-7000 HPLC system using a L-7100 analytical pump, L-7400 UV-Visible variable wavelength detector, and L-7600 automatic sample injector. […] Disappearance of the analyte was monitored over time. A plot of the area under the curve for the normalized analyte versus time afforded the half-life values and kapp.
Microsomes contain CYPs and FMO metabolic enzymes. S9 contains soluble enzymes (i.e., aldehyde oxidase, MAO, etc.).

Male BALBc mice = details: mice, 100 mg/kg; for behavioral effects at 100 mg/kg: enantiomers
Text: Male BALBc mice (20-22 g) were used throughout these studies. The animals were maintained in a temperature-controlled room with 12-hr periods of light and darkness and had continuous access to water and animal food. […] Groups contained 2-4 animals.

[2] = Metabolic stability in human liver microsomes; format: in vitro ADME; details: human, microsomes
Procedure: as §1

[3] = test system: normal human induced pluripotent stem cell (hiPSC) cardiomyocyte; details: for Cessation of Beating / WT-EAD Dose / WT-Fold Prolongation / WT-Prolongation Dose: normal hiPSC cardiomyocytes; for WT-Cessation Dose (μM): WT cardiomyocytes, cessation of beating; for WT-Fold Prolongation: APD
[4] = test system: cardiomyocytes derived from hiPSCs from a LQTS3 patient; test: cells; details: Homo sapiens, Cardiomyocyte; for IC50: read-out: LQT-IC50 (uM)-Shortening
[5] = test system: normal human induced pluripotent stem cell (hiPSC) cardiomyocyte; test: cells; details: read-out: WT-EC50 (μM) Prolongation
[6] = test system: cardiomyocytes derived from hiPSCs from a LQTS3 patient; details: for LQT-EC50 (μM) Shortening: AP shortening
[7] = Chemical stability in PBS buffer at pH 7.4 or 3.0, 37° C.; format: physicochemical; details: 1% Ethanol
Procedure: A typical incubation contained 100 μM of the test compound prepared in PBS buffer (pH 7.4 or 3.0, 50 mM) with 1% Ethanol. The test compounds were incubated at 37° C. An aliquot from incubations was taken at various times and injected onto an RP-HPLC system as described above. Disappearance of the analyte was monitored over time.

[8] = molecular target: hERG potassium channel (IKr) (Homo sapiens, UniProt Q12809); test: Automated patch clamp, hERG (IKr) expressed in CHO cells; details: for IC50: hERG (IKr) IC50, CHO cells
Chain of hERG potassium channel (IKr) (Q12809 whole entry): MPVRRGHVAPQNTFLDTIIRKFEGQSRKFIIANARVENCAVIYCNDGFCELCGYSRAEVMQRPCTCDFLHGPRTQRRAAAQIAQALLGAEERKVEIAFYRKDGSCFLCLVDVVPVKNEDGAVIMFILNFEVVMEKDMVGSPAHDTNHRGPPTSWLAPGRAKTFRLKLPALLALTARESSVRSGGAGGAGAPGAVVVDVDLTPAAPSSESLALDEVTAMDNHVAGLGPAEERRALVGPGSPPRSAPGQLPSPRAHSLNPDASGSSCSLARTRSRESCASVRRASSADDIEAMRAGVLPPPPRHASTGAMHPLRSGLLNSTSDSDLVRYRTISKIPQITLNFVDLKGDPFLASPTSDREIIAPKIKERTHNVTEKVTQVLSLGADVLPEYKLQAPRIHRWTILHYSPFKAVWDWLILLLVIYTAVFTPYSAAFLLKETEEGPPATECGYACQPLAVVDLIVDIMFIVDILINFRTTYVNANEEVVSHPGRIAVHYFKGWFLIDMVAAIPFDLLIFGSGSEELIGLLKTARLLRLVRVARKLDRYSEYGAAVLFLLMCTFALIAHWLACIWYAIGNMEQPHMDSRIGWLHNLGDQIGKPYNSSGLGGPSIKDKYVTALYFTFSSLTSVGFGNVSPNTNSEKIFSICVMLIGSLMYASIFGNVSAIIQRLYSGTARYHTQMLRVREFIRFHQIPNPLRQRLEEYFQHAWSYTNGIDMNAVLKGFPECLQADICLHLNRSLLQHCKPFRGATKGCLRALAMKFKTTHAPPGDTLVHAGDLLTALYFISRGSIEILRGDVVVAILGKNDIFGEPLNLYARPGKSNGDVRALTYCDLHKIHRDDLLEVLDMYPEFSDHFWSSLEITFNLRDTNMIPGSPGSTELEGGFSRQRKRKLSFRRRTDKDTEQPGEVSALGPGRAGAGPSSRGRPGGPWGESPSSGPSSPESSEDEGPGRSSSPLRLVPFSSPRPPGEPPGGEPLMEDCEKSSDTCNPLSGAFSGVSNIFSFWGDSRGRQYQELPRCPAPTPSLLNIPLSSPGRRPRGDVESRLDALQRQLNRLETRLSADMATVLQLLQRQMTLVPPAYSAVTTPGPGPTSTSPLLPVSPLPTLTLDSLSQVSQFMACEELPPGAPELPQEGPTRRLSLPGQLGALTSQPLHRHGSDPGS

[9] = molecular target: Nav1.5 sodium channel transfected into HEK293 cells (Homo sapiens, UniProt Q14524); test: in vitro
Procedure: (§2) This provided data to investigate the physiology and action of target compounds on individual ion channels. The assay used standardized protocols for culturing and conducting conventional whole cell recording that have been previously developed for both current and voltage-clamp to characterize action potentials using transfected cells. Briefly, the Nav1.5 sodium channel was transfected into HEK293 cells. […] Briefly, cells were plated on 0.1% gelatin-coated 35-mm plastic Petri dishes. […] Data was reported as IC50 values±STD (Table 1).

[10] = molecular target: Nav1.5 sodium channel, peak current (INaP) (Homo sapiens, UniProt Q14524, form not given); test: in vitro; details: Peak Na+ (INaP) IC50
Procedure: as §2

[11] = pH 3, 100 μM in PBS, read-out: Half-Life @ pH 3.0 and 37° C.
[12] = pH 7.4, 100 μM in PBS, read-out: Half-Life @ pH 7.4 and 37° C.

Cl.NC(COc1cc(C(F)(F)F)cc(C(F)(F)F)c1)c1ccccc1 (stereo in doubt) [(R)-78]
Liver S-9, remaining after 1 hr ([1]; human, s9, 1 h): >95% after 1 hr
Behavior Effect (R)-enantiomer (Male BALBc mice): No detectable effect
behavioral effects at 100 mg/kg (Male BALBc mice): no apparent behavioral effects
Liver Microsomes, remaining after 1 hr [2]: >95% after 1 hr

Cl.NC(COc1ccccc1C(F)(F)F)c1ccccc1 (stereo in doubt) [(S)-82]
Liver S-9, remaining after 1 hr ([1]; human, s9, 1 h): >95% after 1 hr
Behavior Effect (S)-enantiomer (Male BALBc mice): 2/4 slightly lethargic
behavioral effects at 100 mg/kg (Male BALBc mice): Minor lethargy
Liver Microsomes T1/2 [2]: 0.253 days

Cc1cc(C)cc(OCC(N)c2ccccc2)c1.Cl (stereo in doubt) [(R)-70]
Liver S-9 T1/2 ([1]; human): 0.7049 days
Behavior Effect (R)-enantiomer (Male BALBc mice): No detectable effect
behavioral effects at 100 mg/kg (Male BALBc mice): no apparent behavioral effects
Liver Microsomes T1/2 [2]: 0.282 days

Cc1cccnc1OCC(N)c1ccccc1 (stereo not drawn) [Compound 94, 2-((3-methylpyridin-2-yl)oxy)-1-phenylethan-1-amine]
Cessation of Beating [3]: None
WT-EAD Dose [3]: 133 µM
WT-Cessation Dose ([3]; pyridyl derivatives): No cessation of beatimg
EC50 ([4]; read-out: LQT-EC50 (μM) Shortening, pyridyl derivatives): 12.8 µM
EC50 [5]: 18.5 µM

NC(COc1cnccc1C(F)(F)F)c1ccccc1 (stereo not drawn) [Compound 115]
WT-Cessation Dose (μM) [3]: No cessation of beating
LQT-Fold Shortening ([6]; LQT-3 cardiomyocytes): Does Not Shorten
LQT-Shortening Dose (μM) ([6]; LQT-3 cardiomyocytes): Does Not Shorten
LQT-EC50 (μM) Shortening ([6]; LQT-3 cardiomyocytes): Does Not Shorten
EC50 [5]: 25.7 µM

COCCNC(COc1ccncc1)c1ccccc1 (stereo not drawn) [Compound 127]
WT-Cessation Dose (μM) [3]: No cessation of beating
LQT-Fold Shortening ([6]; LQT-3 cardiomyocytes): Does Not Shorten
LQT-Shortening Dose (μM) ([6]; LQT-3 cardiomyocytes): Does Not Shorten
LQT-EC50 (μM) Shortening ([6]; LQT-3 cardiomyocytes): Does Not Shorten
EC50 [5]: 97.7 µM

Cc1cc(C)cc(OCC(N)c2ccccc2)c1 (stereo not drawn) [drawing 309]
half-life at 100 μM [7, 11]: > 30 days
half-life at 100 μM [7, 12]: > 30 days

NC(COc1ccccc1C(F)(F)F)c1ccc2ccccc2c1 (stereo not drawn) [Compound 134]
prolongation effects in wild type cells ([3]; wild type cells): some prolongation effects
LQT-Fold Shortening ([6]; LQT-3 cardiomyocytes): 1.515
LQT-Cessation Dose (μM) ([6]; LQT-3 cardiomyocytes, cessation of beating): No cessation of beating
LQT-3 shortening (in words) ([6]; LQT-3 cells): highly potent
cessation of beating (in words) ([6]; at the concentrations examined, cells not specified): did not induce cessation of beating
EC50 ([4]; read-out: LQT-EC50 (μM) Shortening, LQT-3 cardiomyocytes, AP shortening): 1.79 µM
EC50 [5]: 24.4 µM

Cc1ccncc1OCC(N)c1ccccc1 (stereo not drawn) [Compound 112]
WT-Cessation Dose (μM) [3]: No cessation of beating
LQT-Fold Shortening ([6]; LQT-3 cardiomyocytes): Does Not Shorten
LQT-Shortening Dose (μM) ([6]; LQT-3 cardiomyocytes): Does Not Shorten
LQT-EC50 (μM) Shortening ([6]; LQT-3 cardiomyocytes): Does Not Shorten
EC50 [5]: 19.4 µM

Cc1cc(C)cc(OCC(N)c2ccccc2)c1.Cl (stereo in doubt) [(S)-70]
Liver S-9, remaining after 1 hr ([1]; human, s9, 1 h): >95% after 1 hr
Behavior Effect (S)-enantiomer (Male BALBc mice): 2/4 lethargic
behavioral effects at 100 mg/kg (Male BALBc mice): Minor lethargy
Liver Microsomes, remaining after 1 hr [2]: >95% after 1 hr

Cc1ccccc1OCC(C)N (stereo not drawn) [Compound 9, 1-(2-Methylphenoxy)propan-2-amine]
WT-Fold Prolongation [3]: 2.363
WT-EAD Dose [3]: 200 µM
LQT-Cessation Dose ([6]; LQT3 cardiomyocytes): None
LQT-Fold Shortening ([6]; LQT3 cardiomyocytes): 1.28
IC50 [8]: 98 µM
DKr/NaL ([8]; ratio hERG IC50/late Na IC50): 1.9
DNaP/Kr ([8]; ratio peak Na IC50/hERG IC50): 1.7
IC50 [4]: 0.76 µM
IC50 [9]: 52 µM
DNap/NaL ([9]; ratio peak IC50/late IC50): 3.1
IC50 [10]: 162 µM

Cc1cccc(C)c1OC[C@@H](C)N [(R)-Mexiletine, reference compound]
Liver S-9, remaining after 1 hr ([1]; human liver S-9, 1 hr): >95% after 1 hr

Cc1ccccc1OCC(N)c1ccccc1 (stereo not drawn) [drawing 311]
half-life at 100 μM [7, 11]: > 15 days

NC(COc1cc(C(F)(F)F)cc(C(F)(F)F)c1)c1ccccc1 (stereo not drawn) [drawing 310]
half-life at 100 μM [7, 11]: > 30 days
half-life at 100 μM [7, 12]: 30 days

Cc1ccccc1OCC(N)c1ccccc1.Cl (stereo in doubt) [(S)-25]
Liver S-9, remaining after 1 hr ([1]; human, s9, 1 h): >95% after 1 hr

Cl.NC(COc1cc(C(F)(F)F)cc(C(F)(F)F)c1)c1ccccc1 (stereo in doubt) [(S)-78]
Liver S-9 T1/2 ([1]; human): 0.7222 days
Behavior Effect (S)-enantiomer (Male BALBc mice): 2/4 shaking
behavioral effects at 100 mg/kg (Male BALBc mice): Minor lethargy
Liver Microsomes, remaining after 1 hr [2]: >95% after 1 hr

CNC(C)COc1c(C)cccc1C (stereo not drawn) [Compound 11, 1-(2,6-dimethylphenoxy)-N-methylpropan-2-amine]
WT-Fold Prolongation [3]: 2.194
WT-EAD Dose [3]: 22 µM
LQT-Cessation Dose ([6]; LQT3 cardiomyocytes): 133 µM
LQT-Fold Shortening ([6]; LQT3 cardiomyocytes): 1.112
IC50 [8]: 44 µM
DKr/NaL ([8]; ratio hERG IC50/late Na IC50): 1.2
DNaP/Kr ([8]; ratio peak Na IC50/hERG IC50): 2.8
IC50 [4]: 1.48 µM
IC50 [9]: 36 µM
DNap/NaL ([9]; ratio peak IC50/late IC50): 3.4
IC50 [10]: 124 µM

Cc1cc(C)c(OCC(N)c2ccccc2)cn1 (stereo not drawn) [Compound 120]
WT-Cessation Dose (μM) [3]: No cessation of beating
LQT-Fold Shortening ([6]; LQT-3 cardiomyocytes): Does Not Shorten
LQT-Shortening Dose (μM) ([6]; LQT-3 cardiomyocytes): Does Not Shorten
LQT-EC50 (μM) Shortening ([6]; LQT-3 cardiomyocytes): Does Not Shorten
EC50 [5]: 7.33 µM

COCCNC(COc1cc(C(F)(F)F)cc(C(F)(F)F)c1)c1ccccc1.Cl (stereo not drawn) [Compound 80]
WT-Fold Prolongation [3]: None
Cessation of Beating [3]: None
WT-Prolongation Dose [3]: None
LQT-Cessation Dose ([6]; LQT3 cardiomyocytes): 133 µM
LQT-Fold Shortening ([6]; LQT3 cardiomyocytes): 1.636
IC50 [8]: 16.8 µM
IC50 ([8]; Example 2): 16.8 µM
DKr/NaL ([8]; ratio hERG IC50/late Na IC50): 16.5
DNaP/Kr ([8]; ratio peak Na IC50/hERG IC50): 2.7
DKr/NaL ([8]; ratio, Example 2): 16.5
DNaP/Kr ([8]; ratio, Example 2): 2.7
IC50 [4]: 6.59 µM
DNap/NaL ([9]; ratio peak IC50/late IC50): 44.2
DNap/NaL ([9]; ratio peak/late IC50, Example 2): 44.2
IC50 [10]: 45.1 µM

Cc1cncc(OCC(N)c2ccccc2)c1 (stereo not drawn) [Compound 113]
LQT-Fold Shortening ([6]; LQT-3 cardiomyocytes): Does Not Shorten
LQT-Shortening Dose (μM) ([6]; LQT-3 cardiomyocytes): Does Not Shorten
LQT-EC50 (μM) Shortening ([6]; LQT-3 cardiomyocytes): Does Not Shorten
EC50 [5]: 7.24 µM

Cc1ccccc1OCC(N)c1ccccc1.Cl (stereo in doubt) [(R)-25]
Liver S-9 T1/2 ([1]; human): 0.283 days

NC(COc1ccccc1C(F)(F)F)c1ccccc1 (stereo not drawn) [drawing 312]
half-life at 100 μM [7, 11]: > 15 days
half-life at 100 μM [7, 12]: > 30 days

Cc1cccc(C)c1OC[C@H](C)N [(S)-Mexiletine, reference compound]
Liver S-9, remaining after 1 hr ([1]; human liver S-9, 1 hr): >95% after 1 hr

NC(COc1ccccc1C(F)(F)F)c1ccccc1 (stereo not drawn) [Compound 27, 1-phenyl-2-(2-(trifluoromethyl)phenoxy)ethanamine]
WT-Fold Prolongation [3]: None
Cessation of Beating [3]: 66 µM
WT-Prolongation Dose [3]: None
LQT-Cessation Dose ([6]; LQT3 cardiomyocytes): 66 µM
LQT-Fold Shortening ([6]; LQT3 cardiomyocytes): 1.783
IC50 [8]: 37.5 µM
DKr/NaL ([8]; ratio hERG IC50/late Na IC50): 36.1
DNaP/Kr ([8]; ratio peak Na IC50/hERG IC50): 1.1
IC50 [4]: > 0.8 µM
IC50 [9]: 1.04 µM
DNap/NaL ([9]; ratio peak IC50/late IC50): 39.5
IC50 [10]: 41.1 µM

Cc1ccnc(C)c1OCC(N)c1ccccc1 (stereo not drawn) [Compound 118]
WT-Cessation Dose (μM) [3]: No cessation of beating
LQT-Fold Shortening ([6]; LQT-3 cardiomyocytes): Does Not Shorten
LQT-Shortening Dose (μM) ([6]; LQT-3 cardiomyocytes): Does Not Shorten
LQT-EC50 (μM) Shortening ([6]; LQT-3 cardiomyocytes): Does Not Shorten
EC50 [5]: 8.22 µM

Cc1cccc(C)c1OCC(N)C(C)(C)C (stereo not drawn) [Compound 12, 1-(2,6-dimethylphenoxy)-3,3-dimethylbutan-2-amine]
WT-Fold Prolongation [3]: >4
WT-EAD Dose [3]: 7.4 µM
LQT-Cessation Dose ([6]; LQT3 cardiomyocytes): 22 µM
LQT-Fold Shortening ([6]; LQT3 cardiomyocytes): 1.182
IC50 [8]: 49 µM
DKr/NaL ([8]; ratio hERG IC50/late Na IC50): 4.5
DNaP/Kr ([8]; ratio peak Na IC50/hERG IC50): 1.9
IC50 [4]: 0.648 µM
IC50 [9]: 11 µM
DNap/NaL ([9]; ratio peak IC50/late IC50): 8.3
IC50 [10]: 91 µM
